In patent publication US20090093460A1, “Compositions” (AstraZeneca AB, priority 2003, published 2009):
Where two headings read alike, the source gives them in different places.

Tests used:
rats = test: Geller-Seifter conflict test; format: in vivo, rat
Procedure: (§1) Anxiolytic activity of 11-piperazin-1-yldibenzo[b,f][1,4]thiazepine was tested in rats according to the Geller-Seifter conflict test. Efficacy results are presented in Table 1 and plasma levels in satellite exposure animals at 0.25 hours after administration are provided in Table 2.
Subjects: 30 Male Long Evans rats were used. Subjects weighed 350-450 g at the time of testing, and were food restricted to 85% of free feeding weight by post session feeding with approximately 15 g of standard rat chow per day. All animals had free access to water except during experimental testing. Subjects were individually housed throughout the course of the experiment under a 12 hour light/dark cycle.
Apparatus: Standard 2-lever operant chambers were used (Med Associates). The chambers were fitted with two retractable response levers and a stimulus lamp over each of the 2 levers. A pellet food dispenser delivered 45 mg food pellets, (Bio Serv) to a cup located inside of the chamber below and between the 2 response levers. A lamp at the top and back of the chamber served as houselights. […] All events in the chambers were controlled and monitored by a microprocessor. […]
Several doses were tested on a given day in different subjects. […] The dependent variables recorded were the rate of responding in unpunished and punished components (total responses/total time under the component), the number of shocks delivered. […]

[1] = PET scans of primate subjects, brain entry; format: in vivo; details: preliminary PET scans
Source text: (§2) The compound of Formula I is a dibenzothiazepine that has shown antidopaminergic activity.

D2 receptors = biological target: T1, D2 receptors (Homo sapiens, UniProt P14416); design: species or system primate; details: in vivo
T1 construct: from tissue; host or cells: brain of living primate subjects (PET)
T1 sequence (P14416 whole entry): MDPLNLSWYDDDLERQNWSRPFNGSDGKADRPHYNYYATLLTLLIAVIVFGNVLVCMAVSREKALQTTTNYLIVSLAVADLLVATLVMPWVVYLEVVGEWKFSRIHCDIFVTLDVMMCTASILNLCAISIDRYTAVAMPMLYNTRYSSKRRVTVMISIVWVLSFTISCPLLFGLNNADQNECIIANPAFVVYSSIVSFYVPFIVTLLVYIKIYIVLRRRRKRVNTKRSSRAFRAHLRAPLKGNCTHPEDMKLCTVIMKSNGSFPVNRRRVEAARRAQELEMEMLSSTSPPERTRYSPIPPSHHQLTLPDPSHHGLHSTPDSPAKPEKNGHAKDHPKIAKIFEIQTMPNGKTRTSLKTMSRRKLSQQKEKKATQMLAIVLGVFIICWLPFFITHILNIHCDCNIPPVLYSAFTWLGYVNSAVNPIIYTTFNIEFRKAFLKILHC

D1 receptors = biological target: T2, D1 receptors (Homo sapiens, UniProt P21728); test: PET scans of primate subjects, D1 occupancy; format: in vivo; details: preliminary PET scans
T2 construct: from tissue; host or cells: brain of living primate subjects (PET)
T2 sequence (P21728 whole entry): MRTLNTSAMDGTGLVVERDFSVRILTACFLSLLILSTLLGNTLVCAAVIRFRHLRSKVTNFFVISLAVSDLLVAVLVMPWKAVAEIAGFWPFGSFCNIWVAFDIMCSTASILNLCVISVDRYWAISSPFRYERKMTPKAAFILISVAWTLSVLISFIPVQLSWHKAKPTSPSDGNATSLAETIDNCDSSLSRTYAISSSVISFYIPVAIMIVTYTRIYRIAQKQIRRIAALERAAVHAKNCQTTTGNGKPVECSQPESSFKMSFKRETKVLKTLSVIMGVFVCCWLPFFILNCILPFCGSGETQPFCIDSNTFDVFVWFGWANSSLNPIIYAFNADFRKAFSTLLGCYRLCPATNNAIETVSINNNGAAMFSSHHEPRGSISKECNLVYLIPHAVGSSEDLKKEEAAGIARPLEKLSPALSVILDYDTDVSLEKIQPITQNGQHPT
Source text: as §2

[2] = biological target: Adrenergic α1* Non-Selective; test: Radioligand binding 203500 Adrenergic α1* Non-Selective; design: species or system rat
Source text: (§3) Receptor binding methods, α-adrenergic nonselective, are provided below.

[3] = Plasma levels in satellite exposure animals (Geller-Seifter); format: in vivo; details: Long Evans, rat, subcutaneous, 0.25 hours after administration
Procedure: as §1
Several doses were tested on a given day in different subjects. Each dose, then, was tested in a different sub-set of rats. The dependent variables recorded were the rate of responding in unpunished and punished components (total responses/total time under the component), the number of shocks delivered. A selective anxiolytic effect is defined as an increase in responding in the […] components with relatively less or no effect on responding in […] components. t-Tests were used to compare mean of the control's rate of responding on vehicle day of the rats used for a specific dose to the same rats means following delivery of each dose of compound (for only the rats used within each dose). Brains, CSF and plasma were collected in a satellite group of rats that match the Geller-Seifter rats to evaluate exposure levels.
Exposure sampling: In weight and feeding status-matched subjects, terminal plasma, whole brain and CSF samples were collected. Four rats were used for each of the 4 doses of drug, with samples obtained 15 minutes after dosing.

Adrenergic α1A = biological target: T3, Adrenergic α1A (Rattus norvegicus, UniProt P43140); test: Radioligand binding 203100 Adrenergic α1A
T3 construct: 203100
T3 sequence (P43140 1-466): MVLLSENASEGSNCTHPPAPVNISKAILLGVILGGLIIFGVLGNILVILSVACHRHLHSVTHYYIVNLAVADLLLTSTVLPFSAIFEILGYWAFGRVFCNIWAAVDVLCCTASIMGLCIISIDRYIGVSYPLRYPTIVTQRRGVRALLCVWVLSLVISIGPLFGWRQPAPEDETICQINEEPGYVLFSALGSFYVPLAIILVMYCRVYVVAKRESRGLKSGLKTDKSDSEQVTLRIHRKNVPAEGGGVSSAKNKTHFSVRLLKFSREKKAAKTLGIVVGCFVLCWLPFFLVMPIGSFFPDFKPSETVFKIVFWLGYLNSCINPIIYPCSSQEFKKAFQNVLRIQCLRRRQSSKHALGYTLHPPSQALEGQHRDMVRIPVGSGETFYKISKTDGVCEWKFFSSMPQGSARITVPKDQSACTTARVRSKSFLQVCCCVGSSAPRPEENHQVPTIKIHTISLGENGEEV
Source text: Receptor binding methods, (α-adrenergic subtype specific, are provided below.

[4] = biological target: Adrenergic α2* Non-Selective; test: Radioligand binding 203900 Adrenergic α2* Non-Selective; design: species or system rat
Source text: as §3

## c1ccc2c(c1)N=C(N1CCNCC1)c1ccccc1S2 [11-piperazin-1-yldibenzo[b,f][1,4]thiazepine]
rats; doses of 2, 5, and 10 mg/kg s.c.
  rates of responding in the punished component: Significant increases
rats; rats, 15 minute pre-treatment
  Inactive dose: 1 mg/kg s.c.
[1]
  brain entry by PET: reaches the brain
D2 receptors
  receptor occupancy by PET: occupies
D1 receptors
  receptor occupancy by PET: occupies
[2]
  IC50: 69.3 nM
  Ki: 37.2 nM
[2]; 0.1 μM
  % INH.: 61%
[3]; 2 mg/kg s.c.
  concentration at 0.25 h: 4.8 µM
[3]; 5 mg/kg s.c.
  concentration at 0.25 h: 12.1 µM
[3]; 10 mg/kg s.c.
  concentration at 0.25 h: 19.4 µM
Adrenergic α1A
  IC50: 268 ± 12 nM
  n: 1.03 ± 0.089
Adrenergic α1A; 0.3 μM
  inhibition at 0.3 µM: 51%
Adrenergic α1A; read-out: ki
  Ki: 108 ± 5 nM
Adrenergic α1A; α1A, read-out: Affinity
  Ki: 108 nM
[4]
  IC50: 1410 nM
  Ki: 1290 nM
[4]; 10 μM
  % INH.: 73%
